Data from BindingDB's records for doi:10.1021/jm00020a029 (Merck Research Laboratories, 1995).
*1 amine or outer side, *2 acyl side, *3 side chain or, on linkers, in order; H or OH if unused. Where a SMILES comes first, the peptide text is derived from it. [ ]: non-standard residue; d: D form. ξ: configuration not given here. Phe(3,4-Cl2) = N[C@@H](Cc1ccc(Cl)c(Cl)c1)C(=O)O; X1 = COc1c(I)cc(C[C@H](N[*:1])C(=O)[*:2])cc1I; ξTyr(3,5-I2) = NC(Cc1cc(I)c(O)c(I)c1)C(=O)O; Tyr(3-I) = N[C@@H](Cc1ccc(O)c(I)c1)C(=O)O; Phe(4-F) = N[C@@H](Cc1ccc(F)cc1)C(=O)O; hArg = N=C(N)NCCCC[C@H](N)C(=O)O; Cha = N[C@@H](CC1CCCCC1)C(=O)O

Legend:
[1] = Evaluated for the activity of Radio-ligand Peptides upon the activation of human thrombin receptor measured by platelet aggregation
[2] = target: T1, Proteinase-activated receptor 1 (Homo sapiens, UniProt P25116); assay: Evaluated for the activation of human thrombin receptor measured by platelet aggregation
T1 sequence (P25116 whole entry): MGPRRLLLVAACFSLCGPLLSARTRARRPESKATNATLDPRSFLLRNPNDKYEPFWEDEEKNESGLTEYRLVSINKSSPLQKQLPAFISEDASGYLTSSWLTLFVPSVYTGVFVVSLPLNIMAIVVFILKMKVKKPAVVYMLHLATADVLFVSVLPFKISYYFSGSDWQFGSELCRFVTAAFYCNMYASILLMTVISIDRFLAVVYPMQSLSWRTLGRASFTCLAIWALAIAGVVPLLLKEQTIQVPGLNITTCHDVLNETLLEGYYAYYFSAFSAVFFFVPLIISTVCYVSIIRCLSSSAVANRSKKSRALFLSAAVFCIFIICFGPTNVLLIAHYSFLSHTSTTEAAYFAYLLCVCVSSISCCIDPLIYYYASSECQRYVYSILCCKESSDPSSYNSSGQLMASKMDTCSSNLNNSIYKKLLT

[3] = Evaluated for the activation of human thrombin receptor measured by platelet aggregation

Row | Compound | EC50 [1] | EC50 [2] | EC50 [3]
1 | C[C@H](N)C(=O)N[C@@H](Cc1ccc(F)cc1)C(=O)N[C@@H](CCCNC(=N)N)C(=O)N[C@@H](CC1CCCCC1)C(=O)N[C@@H](CCCCNC(=N)N)C(=O)NC(Cc1cc(I)c(O)c(I)c1)C(N)=O (stereo partly drawn) [(S)-2-((S)-2-{(S)-2-[(S)-2-((S)-2-Amino-propionylamino)-3-(4-fluoro-phenyl)-propionylamino]-5-guanidino-pentanoylamino}-3-cyclohexyl-propionylamino)-6-guanidino-hexanoic acid [1-carbamoyl-2-(4-hydroxy-3,5-diiodo-phenyl)-ethyl]-amide] (H-A[Phe(4-F)]R[Cha][hArg][ξTyr(3,5-I2)]-NH2) | 150 nM | – | –
2 | C[C@H](N)C(=O)N[C@@H](Cc1ccc(F)cc1)C(=O)N[C@@H](CCCN=C(N)N)C(=O)N[C@@H](CC1CCCCC1)C(=O)N[C@@H](CCCCN=C(N)N)C(=O)N[C@@H](Cc1ccc(O)c(I)c1)C(N)=O [(S)-2-((S)-2-{(S)-2-[(S)-2-((S)-2-Amino-propionylamino)-3-(4-fluoro-phenyl)-propionylamino]-5-guanidino-pentanoylamino}-3-cyclohexyl-propionylamino)-6-guanidino-hexanoic acid [1-carbamoyl-2-(4-hydroxy-3-iodo-phenyl)-ethyl]-amide] (H-A[Phe(4-F)]R[Cha][hArg][Tyr(3-I)]-NH2) | 30 nM | – | –
3 | C[C@H](N)C(=O)N[C@@H](Cc1ccc(F)cc1)C(=O)N[C@@H](CCCNC(=N)N)C(=O)N[C@@H](CC1CCCCC1)C(=O)N[C@@H](CCCCNC(=N)N)C(=O)N[C@@H](Cc1ccc(O)cc1)C(N)=O [(S)-2-((S)-2-{(S)-2-[(S)-2-((S)-2-Amino-propionylamino)-3-(4-fluoro-phenyl)-propionylamino]-5-guanidino-pentanoylamino}-3-cyclohexyl-propionylamino)-6-guanidino-hexanoic acid [1-carbamoyl-2-(4-hydroxy-phenyl)-ethyl]-amide] (H-A[Phe(4-F)]R[Cha][hArg]Y-NH2) | – | 160 nM | –
4 | CC(C)C[C@H](NC(=O)[C@H](Cc1ccc(Cl)c(Cl)c1)NC(=O)[C@H](C)N)C(=O)N[C@@H](CC1CCCCC1)C(=O)N[C@@H](CCCNC(=N)N)C(N)=O [(S)-2-[(S)-2-((S)-2-Amino-propionylamino)-3-(3,4-dichloro-phenyl)-propionylamino]-4-methyl-pentanoic acid [(S)-1-((S)-1-carbamoyl-4-guanidino-butylcarbamoyl)-2-cyclohexyl-ethyl]-amide] (H-A[Phe(3,4-Cl2)]L[Cha]R-NH2) | 300 nM | – | 270 nM
5 | COc1c(I)cc(C[C@H](NC(=O)[C@H](Cc2ccc(Cl)c(Cl)c2)NC(=O)[C@H](C)N)C(=O)N[C@@H](CC2CCCCC2)C(=O)N[C@@H](CCCNC(=N)N)C(N)=O)cc1I [(S)-2-{(S)-2-[(S)-2-[(S)-2-((S)-2-Amino-propionylamino)-3-(3,4-dichloro-phenyl)-propionylamino]-3-(3,5-diiodo-4-methoxy-phenyl)-propionylamino]-3-cyclohexyl-propionylamino}-5-guanidino-pentanoic acid amide] (H-A[Phe(3,4-Cl2)][X1][Cha]R-NH2) | 1500 nM | – | 10 nM
6 | CC(C)C[C@H](NC(=O)[C@H](CC(C)C)NC(=O)[C@H](Cc1ccccc1)NC(=O)[C@@H](N)CO)C(=O)N[C@@H](CCCNC(=N)N)C(=O)N[C@@H](CC(N)=O)C(=O)N1CCC[C@H]1C(=O)N[C@@H](CC(N)=O)C(=O)N[C@@H](CC(=O)O)C(N)=O [SFLLRDPQD-NH2] (H-SFLLRNPND-NH2) | – | – | 3300 nM
